Patent US20080275049A1, “Methods and Compositions for Upregulation of GATA Activity” (REDDY US THERAPEUTICS, INC., priority 2007, published 2008)

Key:
[1] = tested on: Ob/ob mice; assay: Plasma glucose in ob/ob mice (insulin resistance and diabetes model); assay type: in vivo; details: 2 and 4 weeks of treatment, FIG. 9
Procedure: Glucose Measurements: Glucose levels were measured at the end of the studies using commercially available kits. Ob/ob mice were treated with control vehicle or vehicle containing Compound A (GATA activator) or vehicle containing pioglitazone (a known antidiabetic drug).

[2] = tested on: RCT gene (apolipoprotein E, SRB1 and LCAT); assay: RCT gene expression in pancreatic beta cells; assay type: cell-based; details: 25 uM, FIG. 7
Procedure: Pancreatic beta cells were incubated with compound A (25 uM). Following treatment total RNA was isolated and RCT gene (apolipoprotein E, SRB1 and LCAT) expression was determined.

[3] = tested on: Pancreatic beta cells; assay: Glucose stimulated insulin secretion in pancreatic beta cells; assay type: cell-based; details: 25 uM, FIG. 8
Procedure: Pancreatic beta cells were incubated with compound A (25 uM). Following treatment glucose stimulated insulin secretion was determined.

[4] = tested on: cholesterol fed rat; assay: HDL in cholesterol fed rat model; assay type: in vivo; details: FIG. 5
Procedure: Lipid Measurements: Lipid levels were measured at the end of the studies using commercially available kits.
Atherosclerosis is associated with dyslipidemia (increased LDL and low HDL).

[5] = tested on: GATA1; assay: GATA knock-down (siRNA), inducible RCT gene expression; assay type: cell-based, human; details: normal vs GATA-knockdown (siRNA) HepG2 cells; FIG. 2
Procedure: GATA knock-down: HepG2 cells were grown in T-75 flasks prior to study. Transfection of GATA1 specific siRNA in 24-well plates was performed according to the manufacturer's instructions. After 48 hours, RNA was isolated and RT-PCR was performed to examine changes in GATA1 and RCT message levels all normalized to actin. In some experiments, after 48 hours post transfection, media was removed and normal growth media+one of Compounds A-E or DMSO control was added to the wells. RNA isolation and RT-PCR was then performed as stated above.
To determine the role of GATA on inducible RCT gene expression, molecular approaches were used to reduce GATA expression. GATA expression was reduced by siRNA gene silencing. In this test, a candidate compound (Compound A), known for its ability to function as a GATA inducer, was added to both normal and GATA-knockdown cells as described above.

[6] = tested on: ApoE −/− mice; assay: Lipid content of aortas in ApoE −/− fat fed mice; assay type: in vivo; details: oral 50 mg/kg/day for 7 days, oil-red O staining, FIG. 6
Procedure: Lipid Content: 8 week old ApoE −/− mice were fed a high fat diet for 2 months and then placed on normal chow. The mice were then orally dosed for 7 days with either CMC-tween (control) or Compound C at 50 mg/kg/day. At the end of the study, the aorta was dissected out, fixed in the O.C.T., sections were prepared, stained with oil-red O, and mounted under cover slips. The oil-red O staining was analyzed using quantitation software and reported as lipid content per lesion area.
Atherosclerosis is also associated with high levels of lipid content in aortas. Compound C was administered to mice according to the method described above and according to conventional animal testing protocol. The lipid content of the aortas was measured.

[7] = tested on: RCT genes; assay: Real time quantitative PCR screen for RCT gene induction; assay type: cell-based, human; details: cells treated, total RNA, FIG. 4
Procedure: PT-PCR Screen: Human liver cells (HepG2) were grown in T-75 flasks prior to study. 96-well plates were seeded, and the following day, cells were washed with PBS and treated with serum free media for 24 hours. The next day, cells were treated with vehicle (DMSO) or with one of Compounds A-E overnight. RNA was isolated and RT-PCR was performed to examine changes in RCT gene message levels normalized to actin.
An in vitro high-throughput assay based on real time quantitative PCR was developed to screen for and identify agents that simultaneously upregulate RCT genes. Cells were treated with pharmaceutical agents, some of which are GATA inducers as described above. Total RNA was isolated and used in the real time assay.

[8] = tested on: GATA; assay: GATA luciferase reporter assay (GATA activity); assay type: cell-based, human; details: HepG2 cells transfected with GATA luciferase construct, treated overnight; FIG. 3
Procedure: GATA activity: HepG2 cells were grown in T-75 flasks prior to study. 24-well plates were seeded in normal medium without antibiotics to yield ˜50% confluency. The following day, cells were transfected according to the manufacturer's protocol and allowed to incubate overnight. The next day, the media was replaced and cells were treated with vehicle (DMSO) or one of Compounds A-E overnight. Cells were lysed by adding lysis buffer and assayed for luciferase activity.
An in vitro high-throughput assay based on luciferase activity to screen for and identify agents that upregulate GATA activity was developed. HepG2 cells were grown in T-75 flasks prior to study. 24-well plates were seeded in normal medium without antibiotics to yield ˜50% confluency. The following day, cells were transfected (Roche, FuGENE 6 transfection reagent, cat#11815091001) with a GATA luciferase construct (Panomics, cat#LR0027) according to the manufacturer's protocol and allowed to incubate overnight. The next day, the media was replaced and cells were treated with vehicle (DMSO) or GATA inducer candidate compounds (Compounds A-E) overnight. Cells were lysed by adding lysis buffer (Promega, cat#E1500) and assayed for luciferase activity (Perkin Elmer Envision 2101 Multi-Label Reader).

CC(=O)c1ccc(Nc2nc(-c3ccccc3)cc(N3CCC(O)CC3)n2)cc1 [Compound A]
plasma glucose [1]: significantly lower levels of plasma glucose
expression of RCT genes (apolipoprotein E, SRB1 and LCAT) [2]: increased expression of RCT genes
glucose stimulated insulin secretion [3]: increased secretion of insulin
HDL [4]: significantly increased HDL
ability to induce RCT gene expression after GATA knock-down [5]: blunting of Compound A's ability to induce RCT gene expression

CS(=O)(=O)c1ccc(Nc2nc(-c3ccccc3)cc(N3CCC(O)CC3)n2)cc1 [Compound C]
lipid content in aortas [6]: significantly lowered lipid content

CCN1CCCC1CNc1nc(Nc2ccc(OC)c(F)c2)nc(N2CCN(CC(=O)N3CCCC3)CC2)n1 (stereo not shown) [D]
RCT gene expression [7]: did not induce RCT gene induction
GATA activity (luciferase activity) [8]: not shown to induce GATA activity

COc1ccc(Nc2nc(NC3CCCCCC3)nc(N(C)C3CCN(C)CC3)n2)cc1F [E]
RCT gene expression [7]: did not induce RCT gene induction
GATA activity (luciferase activity) [8]: not shown to induce GATA activity
